The results in this text go back to ChEMBL document CHEMBL3044682, “QSAR modeling of bifunctional quinolonyl diketo acid derivatives as integrase inhibitors” (Med Chem Res, 2012).

In the assay the target is Human immunodeficiency virus type 1 integrase (Human immunodeficiency virus 1, UniProt Q7ZJM1). As to the kind of experiment: Inhibition of Human immunodeficiency virus 1 integrase strand transfer activity.
Human immunodeficiency virus type 1 integrase, sequence (Q7ZJM1 whole entry): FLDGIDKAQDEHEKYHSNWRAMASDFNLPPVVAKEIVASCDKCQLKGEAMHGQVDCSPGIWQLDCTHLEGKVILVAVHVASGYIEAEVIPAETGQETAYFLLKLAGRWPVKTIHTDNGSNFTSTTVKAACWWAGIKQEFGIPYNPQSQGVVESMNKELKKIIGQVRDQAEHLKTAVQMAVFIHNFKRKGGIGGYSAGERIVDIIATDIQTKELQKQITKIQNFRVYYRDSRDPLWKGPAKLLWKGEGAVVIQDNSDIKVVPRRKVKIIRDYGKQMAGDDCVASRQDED
`CC[C@@H](CO)n1cc(CO)c(=O)c2cc(Cc3ccccc3F)c(OC)cc21`: half-maximal inhibition (IC50) was put at 7.2 nM. The compound `Cc1cccc(/C=C/c2ccc3ccc(C(=O)O)c(O)c3n2)c1C` showed an IC50 of 60.6 nM. `O=C(O)/C(O)=C/C(=O)c1ccc2[nH]cc(C(=O)/C=C(\O)C(=O)O)c(=O)c2c1` had a half-maximal inhibitory concentration (IC50) of 430 nM. As for `O=C(O)/C(O)=C/C(=O)c1ccc2c(c1)c(=O)c(C(=O)/C=C(\O)C(=O)O)cn2-c1ccccc1`, the concentration for half-maximal inhibition (IC50) was 12 nM.

As for `O=C(O)/C(O)=C/C(=O)c1cn(Cc2cccc(F)c2)c2ccccc2c1=O`, inhibition was half-maximal at 31.3 nM (IC50). In turn, `O=C(O)/C(O)=C/C(=O)c1ccc2c(c1)c(=O)c(C(=O)O)cn2Cc1ccc(F)cc1` [13, RDS-1607] gave a concentration for half-maximal inhibition (IC50) of 1090 nM. As for `CCOC(=O)/C(O)=C/C(=O)c1cn(Cc2cccc(F)c2)c2ccccc2c1=O` [RDS-1624], half-maximal inhibition (IC50) was put at 326 nM. This IC50 is about 3.3-fold lower than that of the compound before.

One may read the IC50 as the midpoint of a concentration-inhibition curve.
